From ChEMBL document CHEMBL4813938, “Astragaloside IV Improves Tibial Defect in Rats and Promotes Proliferation and Osteogenic Differentiation of hBMSCs through MiR-124-3p.1/STAT3 Axis” (J Nat Prod, 2021)
The source made the active and inactive calls. The calls are words filed in the database; no cut-off is given here.

Key:
Rattus norvegicus [1] = assay: Induction of tibial bone defect regeneration in ip dosed Lewis rat assessed as reduction in […] mRNA expression level administered for 10 consecutive days by RT-qPCR analysis; format: functional, organism-based; settings: dose 0.16-4 g/Kg, time 10.0 day
Rattus norvegicus [2] = assay: Induction of tibial bone defect regeneration in ip dosed Lewis rat assessed as […] in STAT3 mRNA expression level administered for 10 consecutive days by RT-qPCR analysis; format: functional, organism-based; settings: dose 0.16-4 g/Kg, time 10.0 day
Rattus norvegicus [3] = assay: Induction of tibial bone defect regeneration in ip dosed Lewis rat assessed as […] in STAT3 protein expression level administered for 10 consecutive days by Western blotting analysis; format: functional, organism-based; settings: dose 0.16-4 g/Kg, time 10.0 day
Rattus norvegicus [4] = assay: Induction of tibial bone defect regeneration in ip dosed Lewis rat assessed as increase in BV/TV of tibial bone administered for 10 consecutive days by microcomputed tomography method; format: functional, organism-based; settings: dose 0.16-4 g/Kg, time 10.0 day
Rattus norvegicus [5] = assay: Induction of tibial bone defect regeneration in ip dosed Lewis rat assessed as increase in Tb.N of tibial bone administered for 10 consecutive days by microcomputed tomography method; format: functional, organism-based; settings: dose 0.16-4 g/Kg, time 10.0 day
Rattus norvegicus [6] = assay: Induction of tibial bone defect regeneration in ip dosed Lewis rat assessed as increase in Tb.Th of tibial bone administered for 10 consecutive days by microcomputed tomography method; format: functional, organism-based; settings: dose 0.16-4 g/Kg, time 10.0 day
Rattus norvegicus [7] = assay: Induction of tibial bone defect regeneration in ip dosed Lewis rat assessed as increase in BMD of tibial bone administered for 10 consecutive days by microcomputed tomography method; format: functional, organism-based; settings: dose 0.16-4 g/Kg, time 10.0 day
Rattus norvegicus [8] = assay: Induction of tibial bone defect regeneration in ip dosed Lewis rat assessed as decrease in Tb.Sp of tibial bone administered for 10 consecutive days by microcomputed tomography method; format: functional, organism-based; settings: dose 0.16-4 g/Kg, time 10.0 day
HBMSC [9] = assay: Induction of osteogenic differentiation in human BMSCs assessed as increase in cell viability incubated for 72 hrs under osteogenic conditions by MTT assay; format: functional, tissue-based; settings: dose 80-320 mg/ml
HBMSC [10] = assay: Induction of cell cycle arrest in human BMSCs assessed as decrease in cells at G0/G1 phase under osteogenic conditions by PI staining based flow cytometric analysis; format: functional; settings: dose 80-320 mg/ml
HBMSC [11] = assay: Induction of cell cycle arrest in human BMSCs assessed as accumulation of cells at S phase under osteogenic conditions by PI staining based flow cytometric analysis; format: functional, tissue-based; settings: dose 80-320 mg/ml
HBMSC [12] = assay: Induction of cell cycle arrest in human BMSCs assessed as accumulation of cells at G2/M phase under osteogenic conditions by PI staining based flow cytometric analysis; format: functional, tissue-based; settings: dose 80-320 mg/ml
HBMSC [13] = assay: Induction of osteogenic differentiation in human BMSCs assessed as increase in alkaline phosphatase activity incubated for 21 days under osteogenic conditions by ELISA; format: functional, tissue-based; settings: dose 80-320 mg/ml, time 21.0 day
HBMSC [14] = assay: Induction of osteogenic differentiation in human BMSCs assessed as increase in osteogenic medium-induced matrix mineralization by measuring calcium deposition by Alizarin Red S staining-based microscopic analysis; format: functional, tissue-based; settings: dose 80-320 mg/ml
HBMSC [15] = assay: Induction of osteogenic differentiation in human BMSCs assessed as increase in osteogenic medium-induced RUNX2 protein expression level by Western blot analysis; format: functional, tissue-based; settings: dose 80-320 mg/ml
HBMSC [16] = assay: Induction of osteogenic differentiation in human BMSCs assessed as increase in osteogenic medium-induced OCN protein expression level by Western blot analysis; format: functional, tissue-based; settings: dose 80-320 mg/ml
HBMSC [17] = assay: Induction of osteogenic differentiation in human BMSCs assessed as increase in osteogenic medium-induced Smad4 protein expression level by Western blot analysis; format: functional, tissue-based; settings: dose 80-320 mg/ml
HBMSC [18] = assay: Induction of osteogenic differentiation in human BMSCs assessed as increase in osteogenic medium-induced RUNX2 mRNA expression level by RT-qPCR analysis; format: functional, tissue-based
HBMSC [19] = assay: Induction of osteogenic differentiation in human BMSCs assessed as increase in osteogenic medium-induced OCN mRNA expression level by RT-qPCR analysis; format: functional, tissue-based; settings: dose 80-320 mg/ml
HBMSC [20] = assay: Induction of osteogenic differentiation in human BMSCs assessed as increase in osteogenic medium-induced Smad4 mRNA expression level by RT-qPCR analysis; format: functional, tissue-based; settings: dose 80-320 mg/ml
HBMSC [21] = assay: Induction of osteogenic differentiation in human BMSCs assessed as down regulation of miR-124-3p.1 mRNA expression level at 160 mg/ml under osteogenic condition by RT-qPCR analysis; format: functional, tissue-based
Rattus norvegicus [22] = assay: Induction of tibial bone defect regeneration in ip dosed Lewis rat assessed as alleviation of bone injury administered for 10 consecutive days by HE staining based assay; format: functional, organism-based; settings: dose 0.16-4 g/Kg, time 10.0 day
Rattus norvegicus [23] = assay: Induction of tibial bone defect regeneration in ip dosed Lewis rat assessed as increase in Conn.D of tibial bone administered for 10 consecutive days by microcomputed tomography method; format: functional, organism-based; settings: dose 0.16-4 g/Kg, time 10.0 day
HBMSC [24] = assay: Induction of osteogenic differentiation in human BMSCs overexpressing miR-124-3p.1 assessed as increase in cell viability at 160 mg/ml incubated for 72 hrs under osteogenic conditions by MTT assay; format: functional, tissue-based
HBMSC [25] = assay: Induction of cell cycle arrest in human BMSCs overexpressing miR-124-3p.1 assessed as decrease in cells at G0/G1 phase at 160 mg/ml under osteogenic conditions by PI staining based flow cytometric analysis; format: functional
HBMSC [26] = assay: Induction of cell cycle arrest in human BMSCs overexpressing miR-124-3p.1 assessed as accumulation of cells at S phase at 160 mg/ml under osteogenic conditions by PI staining based flow cytometric analysis; format: functional, tissue-based
HBMSC [27] = assay: Induction of cell cycle arrest in human BMSCs overexpressing miR-124-3p.1 assessed as accumulation of cells at G2/M phase at 160 mg/ml under osteogenic conditions by PI staining based flow cytometric analysis; format: functional, tissue-based
HBMSC [28] = assay: Induction of osteogenic differentiation in human BMSCs overexpressing miR-124-3p.1 assessed as increase in alkaline phosphatase activity at 160 mg/ml incubated for 21 days under osteogenic conditions by ELISA; format: functional, tissue-based; settings: time 21.0 day
HBMSC [29] = assay: Induction of osteogenic differentiation in human BMSCs overexpressing miR-124-3p.1 assessed as increase in osteogenic medium-induced matrix mineralization by measuring calcium deposition at 160 mg/ml by Alizarin Red S staining-based microscopic analysis; format: functional, tissue-based
HBMSC [30] = assay: Induction of osteogenic differentiation in human BMSCs overexpressing miR-124-3p.1 assessed as increase in osteogenic medium-induced RUNX2 protein expression level at 160 mg/ml by Western blot analysis; format: functional, tissue-based
HBMSC [31] = assay: Induction of osteogenic differentiation in human BMSCs overexpressing miR-124-3p.1 assessed as increase in osteogenic medium-induced OCN protein expression level at 160 mg/ml by Western blot analysis; format: functional
HBMSC [32] = assay: Induction of osteogenic differentiation in human BMSCs overexpressing miR-124-3p.1 assessed as increase in osteogenic medium-induced Smad4 protein expression level at 160 mg/ml by Western blot analysis; format: functional, tissue-based
HBMSC [33] = assay: Induction of osteogenic differentiation in human BMSCs overexpressing miR-124-3p.1 assessed as increase in osteogenic medium-induced RUNX2 mRNA expression level at 160 mg/ml by RT-qPCR analysis; format: functional, tissue-based
HBMSC [34] = assay: Induction of osteogenic differentiation in human BMSCs overexpressing miR-124-3p.1 assessed as increase in osteogenic medium-induced OCN mRNA expression level at 160 mg/ml by RT-qPCR analysis; format: functional, tissue-based
HBMSC [35] = assay: Induction of osteogenic differentiation in human BMSCs overexpressing miR-124-3p.1 assessed as increase in osteogenic medium-induced Smad4 mRNA expression level at 160 mg/ml by RT-qPCR analysis; format: functional, tissue-based

## CC(C)(O)[C@@H]1CC[C@](C)([C@H]2[C@@H](O)C[C@@]3(C)[C@@H]4C[C@H](O[C@@H]5O[C@H](CO)[C@@H](O)[C@H](O)[C@H]5O)[C@H]5C(C)(C)[C@@H](O[C@@H]6OC[C@@H](O)[C@H](O)[C@H]6O)CC[C@@]56C[C@@]46CC[C@]23C)O1
Rattus norvegicus [1]
  Activity: Dose-Dependent Effect
Rattus norvegicus [2]
  Activity: Dose-Dependent Effect
Rattus norvegicus [3]
  Activity: Dose-Dependent Effect
Rattus norvegicus [4]
  Activity: Dose-Dependent Effect
Rattus norvegicus [5]
  Activity: Dose-Dependent Effect
Rattus norvegicus [6]
  Activity: Dose-Dependent Effect
Rattus norvegicus [7]
  Activity: Dose-Dependent Effect
Rattus norvegicus [8]
  Activity: Dose-Dependent Effect
HBMSC [9]
  Activity: Dose-Dependent Effect
HBMSC [10]
  Activity: Dose-Dependent Effect
HBMSC [11]
  Activity: Dose-Dependent Effect
HBMSC [12]
  Activity: Dose-Dependent Effect
HBMSC [13]
  Activity: Dose-Dependent Effect
HBMSC [14]
  Activity: Dose-Dependent Effect
HBMSC [15]
  Activity: Dose-Dependent Effect
HBMSC [16]
  Activity: Dose-Dependent Effect
HBMSC [17]
  Activity: Dose-Dependent Effect
HBMSC [18]
  Activity: Dose-Dependent Effect
HBMSC [19]
  Activity: Dose-Dependent Effect
HBMSC [20]
  Activity: Dose-Dependent Effect
HBMSC [21]
  Activity: Active
Rattus norvegicus [22]
  Activity: Dose-Dependent Effect
Rattus norvegicus [23]
  Activity: Dose-Dependent Effect
HBMSC [24]
  Activity: inactive
HBMSC [25]
  Activity: inactive
HBMSC [26]
  Activity: inactive
HBMSC [27]
  Activity: inactive
HBMSC [28]
  Activity: inactive
HBMSC [29]
  Activity: inactive
HBMSC [30]
  Activity: inactive
HBMSC [31]
  Activity: inactive
HBMSC [32]
  Activity: inactive
HBMSC [33]
  Activity: inactive
HBMSC [34]
  Activity: inactive
HBMSC [35]
  Activity: inactive
